Like-named read-outs stand apart in the source and are kept apart here.
Columns and labels:
[1] = molecular target: T1, purified, full length dDAT (Drosophila melanogaster, UniProt Q7K4Y6); assay: Competitive inhibition of [3H]nisoxetine binding to purified dDAT by scintillation proximity assay (SPA)
T1 construct: Full length dDAT with a C-terminal thrombin cleavage site followed by a His8-tag; made in house; host or cells: Expi293F suspension cells transduced with BacMam baculovirus (virus produced in Sf9)
Description: (§1) Binding of substrates and inhibitors to purified dDAT was assessed through saturation and competition binding by scintillation proximity assay (SPA).
(§2) This mixture was incubated on rotation for 45 min in darkness at 4 °C. The dDAT-SPA buffer mixture was added to the wells along with 100 nM of the desired tritiated ligand (often at 10% specific activity) and the dilution series of the unlabelled competitor. […] The plates were sealed, mixed at RT for 1.5 h on an agitator and left to settle at RT for 30 min. […] Plates were stored at 4 °C overnight and recounted to ensure that the original data was obtained at equilibrium. All experiments were performed in triplicates.
(§3) All statistical tests and data analyses were performed in GraphPad Prism 9 (GraphPad Software, Prism 9 version 9.2.0, San Diego, CA, USA). Unless otherwise specified, all data points are given as mean ± SEM (standard error of the mean) or mean [SEM interval]. Data obtained from competition binding analyses were fitted as a non-linear regression (curve fit) through an inhibitory dose–response model (variable slope), otherwise known as a four-parameter logistic equation. The non-specific binding condition was subtracted before fitting the data. From the logIC50, the IC50 can be obtained and, therefore, the affinity (Ki) derived through the Cheng-Prusoff equation. For homologous competitive binding, whereby the same compound is used as both the labelled and unlabelled ligand, the Cheng-Prusoff equation can be converted to obtain the Kd. Data plotted as a percentage of the control (absence of the competitive ligand) unless otherwise stated, i.e., normalized to the Bmax determined from the sigmoidal fit. Saturation binding data were fitted after subtracting the non-specific binding from each condition. The data were fitted as a non-linear regression (curve fit) through a sigmoidal dose–response (variable slope) model to determine the Kd. Ion binding study data were plotted using the same four-parameter logistic equation. […] The saturation curves on each plate were fitted with a globally shared Bmax value to enable estimation of low affinity constants.

DAT = molecular target: DAT; parameters: method as in ref 34 (Cao et al. 2016); conditions: footnote d: rat caudate putamen membranes, [3H]CFT; ref 34 (Cao et al. 2016); cited from earlier work
[2] = tested on: dDAT stably transfected into MDCK cells; parameters: method as in ref 25 (Pörzgen et al. 2001); conditions: uptake inhibition of [3H]dopamine, ref 25 (Pörzgen et al. 2001); cited from earlier work
hNET [3] = molecular target: hNET; parameters: method as in ref 32 (Tatsumi et al. 1997); conditions: footnote a: hNET in HEK293 cells, [3H]nisoxetine; ref 32 (Tatsumi et al. 1997); read-out: NET Ki; cited from earlier work
hDAT [4] = conditions: read-out: DAT Ki; footnote a: hDAT in HEK293 cells, [3H]CFT; ref 32 (Tatsumi et al. 1997); cited from earlier work
[5] = molecular target: T2, dDAT expressed in COS-7 cells (Drosophila melanogaster, UniProt Q7K4Y6); assay: Competition binding of [3H]nisoxetine in COS-7 cells expressing dDAT
T2 construct: Full length dDAT with a C-terminal thrombin cleavage site followed by a His8-tag; expressed in transfected cells; host or cells: COS-7 cells, transient transfection
Description: (§4) COS-7 cells (a generous gift from Prof. U. Gether, Univ. of Copenhagen) were transiently transfected in Opti-MEM media (ThermoFisher Scientific, Waltham, MA, USA) using lipofectamine 3000 (ThermoFisher Scientific, Waltham, MA, USA) with 0.36 µg hDAT in the pcDNA3.1 vector, 0.36–0.47 µg hNET in the pcDNA3.1 vector or 0.83–1.6 µg dDAT in pEG BacMam vector per 10^6 cells, in a lipofectamine:DNA (w/w) ratio of 3.5. Cells were seeded in 24-well plates (5 × 10^4/well) coated with poly-ornithine and incubated in 10% CO2 at 37 °C in DMEM media supplemented with 1% FBS.
(§5) Competition binding assays were performed directly in the culture dish 48 h after transfection of the cells. The competition binding experiments were carried out at room temperature (RT). […] All experiments were performed in triplicates.
as §3

[6] = molecular target: T3, hNET expressed in COS-7 cells (Homo sapiens, UniProt P23975); assay: Competition binding of [3H]nisoxetine in COS-7 cells expressing hNET; conditions: hNET in COS-7 cells; competitive inhibition of [3H]nisoxetine binding; mean [SEM interval]; read-out: NET Ki
T3 construct: expressed in transfected cells; host or cells: COS-7 cells, transient transfection
Description: as §5
(§6) All statistical tests and data analyses were performed in GraphPad Prism 9 (GraphPad Software, Prism 9 version 9.2.0, San Diego, CA, USA). Unless otherwise specified, all data points are given as mean ± SEM (standard error of the mean) or mean [SEM interval]. Data obtained from competition binding analyses were fitted as a non-linear regression (curve fit) through an inhibitory dose–response model (variable slope), otherwise known as a four-parameter logistic equation. The non-specific binding condition was subtracted before fitting the data. From the logIC50, the IC50 can be obtained and, therefore, the affinity (Ki) derived through the Cheng-Prusoff equation. For homologous competitive binding, whereby the same compound is used as both the labelled and unlabelled ligand, the Cheng-Prusoff equation can be converted to obtain the Kd. Data plotted as a percentage of the control (absence of the competitive ligand) unless otherwise stated, i.e., normalized to the Bmax determined from the sigmoidal fit. Saturation binding data were fitted after subtracting the non-specific binding from each condition. […]

hDAT [7] = molecular target: hDAT; parameters: method as in ref 35 (Owens et al. 2001); conditions: footnote e: hDAT in HEK293 cells, [125I]RTI-55; ref 35 (Owens et al. 2001); read-out: DAT Ki; cited from earlier work
hNET [8] = molecular target: hNET; parameters: method as in ref 35 (Owens et al. 2001); conditions: footnote e: hNET in HEK293 cells, [3H]nisoxetine; ref 35 (Owens et al. 2001); read-out: NET Ki; cited from earlier work
[9] = molecular target: T4, purified dDAT (dDAT-His8) (Drosophila melanogaster, UniProt Q7K4Y6); assay: Homologous competitive [3H]mazindol binding to purified dDAT (SPA)
T4 construct: Full length dDAT with a C-terminal thrombin cleavage site followed by a His8-tag; made in house; host or cells: Expi293F suspension cells transduced with BacMam baculovirus (virus produced in Sf9)
Description: as §1, §2
as §6, with “condition. The data were fitted as a non-linear regression (curve fit) through a sigmoidal dose–response (variable slope) model to determine the Kd. Ion binding study data were plotted using the same four-parameter logistic equation.” for “condition.”

[10] = molecular target: T4, purified dDAT (dDAT-His8); assay: Saturation binding of [3H]nisoxetine to purified dDAT (SPA)
Description: as §1
All experiments were performed in triplicates.
as §6

[11] = molecular target: T5, hDAT expressed in COS-7 cells (Homo sapiens, UniProt Q01959); assay: Competition binding of [3H]CFT in COS-7 cells expressing hDAT; conditions: hDAT in COS-7 cells; competitive inhibition of [3H]CFT binding; mean [SEM interval]; read-out: DAT Ki
T5 construct: expressed in transfected cells; host or cells: COS-7 cells, transient transfection
Description: as §4, §5
All statistical tests and data analyses were performed in GraphPad Prism 9 (GraphPad Software, Prism 9 version 9.2.0, San Diego, CA, USA). Unless otherwise specified, all data points are given as mean ± SEM (standard error of the mean) or mean [SEM interval]. […] Data plotted as a percentage of the control (absence of the competitive ligand) unless otherwise stated, i.e., normalized to the Bmax determined from the sigmoidal fit. […]

NET = molecular target: NET; parameters: method as in ref 33 (Agoston et al. 1997); conditions: footnote c: [3H]unknown ligand for NET; ref 33 (Agoston et al. 1997); cited from earlier work
[12] = dDAT in COS-7 cells, competitive inhibition of [3H]nisoxetine binding, mean [SEM interval]

T4 sequence (Q7K4Y6 whole entry): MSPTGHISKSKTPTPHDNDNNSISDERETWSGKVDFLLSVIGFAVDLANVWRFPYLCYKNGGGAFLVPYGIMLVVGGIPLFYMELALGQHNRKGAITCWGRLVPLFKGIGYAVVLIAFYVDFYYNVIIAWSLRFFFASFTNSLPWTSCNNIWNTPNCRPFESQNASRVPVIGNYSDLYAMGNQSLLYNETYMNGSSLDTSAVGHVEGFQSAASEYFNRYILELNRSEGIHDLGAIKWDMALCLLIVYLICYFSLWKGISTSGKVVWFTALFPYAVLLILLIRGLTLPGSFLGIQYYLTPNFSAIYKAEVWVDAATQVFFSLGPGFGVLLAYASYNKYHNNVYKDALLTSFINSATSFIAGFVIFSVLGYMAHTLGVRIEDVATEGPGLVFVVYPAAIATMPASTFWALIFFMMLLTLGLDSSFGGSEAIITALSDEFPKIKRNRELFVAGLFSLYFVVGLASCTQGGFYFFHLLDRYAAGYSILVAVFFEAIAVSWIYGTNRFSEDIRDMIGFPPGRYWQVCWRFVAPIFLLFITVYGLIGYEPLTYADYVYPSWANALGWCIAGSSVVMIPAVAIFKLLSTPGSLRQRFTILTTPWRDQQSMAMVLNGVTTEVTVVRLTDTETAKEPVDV
T1 sequence (Q7K4Y6 whole entry): as above
T2 sequence (Q7K4Y6 whole entry): as above
T3 sequence (P23975 whole entry): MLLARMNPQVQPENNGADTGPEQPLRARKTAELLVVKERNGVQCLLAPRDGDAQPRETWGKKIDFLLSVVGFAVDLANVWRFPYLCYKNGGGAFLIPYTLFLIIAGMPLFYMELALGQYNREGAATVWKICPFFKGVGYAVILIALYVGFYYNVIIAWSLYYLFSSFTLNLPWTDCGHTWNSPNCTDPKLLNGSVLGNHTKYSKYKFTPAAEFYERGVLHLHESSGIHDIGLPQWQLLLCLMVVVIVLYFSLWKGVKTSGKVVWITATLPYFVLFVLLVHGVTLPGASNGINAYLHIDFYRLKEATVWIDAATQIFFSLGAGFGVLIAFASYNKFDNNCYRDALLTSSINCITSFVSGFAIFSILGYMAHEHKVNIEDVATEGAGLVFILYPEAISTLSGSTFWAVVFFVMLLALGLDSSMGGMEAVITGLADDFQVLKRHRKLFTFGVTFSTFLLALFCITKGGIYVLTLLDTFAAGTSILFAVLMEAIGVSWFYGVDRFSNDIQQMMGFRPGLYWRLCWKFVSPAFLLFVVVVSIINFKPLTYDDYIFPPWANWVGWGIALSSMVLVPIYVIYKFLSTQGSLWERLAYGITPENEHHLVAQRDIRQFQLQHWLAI
T5 sequence (Q01959 whole entry): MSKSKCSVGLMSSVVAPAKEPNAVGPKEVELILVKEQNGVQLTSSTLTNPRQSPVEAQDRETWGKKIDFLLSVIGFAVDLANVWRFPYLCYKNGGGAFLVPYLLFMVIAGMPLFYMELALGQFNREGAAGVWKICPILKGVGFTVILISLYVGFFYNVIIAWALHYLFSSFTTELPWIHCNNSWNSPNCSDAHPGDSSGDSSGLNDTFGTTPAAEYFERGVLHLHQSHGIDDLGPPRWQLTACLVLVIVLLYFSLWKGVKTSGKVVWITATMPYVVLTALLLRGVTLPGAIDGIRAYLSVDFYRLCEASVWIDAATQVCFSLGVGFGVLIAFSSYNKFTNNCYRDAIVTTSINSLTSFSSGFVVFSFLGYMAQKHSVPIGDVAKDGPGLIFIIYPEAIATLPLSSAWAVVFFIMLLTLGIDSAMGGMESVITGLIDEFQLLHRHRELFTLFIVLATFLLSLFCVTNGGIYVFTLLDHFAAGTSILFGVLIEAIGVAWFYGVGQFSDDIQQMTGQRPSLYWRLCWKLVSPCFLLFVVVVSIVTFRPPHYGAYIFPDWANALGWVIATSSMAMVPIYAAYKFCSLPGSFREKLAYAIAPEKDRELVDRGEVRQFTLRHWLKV

SMILES | Ki ([1]; read-out: dDAT Ki) [µM] | IC50 [2] [nM] | also measured
[O-][S+](CCN1CCN(CC(O)Cc2ccccc2)CC1)C(c1ccc(F)cc1)c1ccc(F)cc1 (stereo not drawn) [JJC8-088] | 33 | – | Ki (DAT): 2.53 ± 0.25 nM
NCCc1c[nH]c2ccc(O)cc12 [Serotonin] | 173 | 43000 ± 7000 | Ki (hNET [3]): > 100000 nM; Ki (hDAT [4]): > 100000 nM
COC(=O)[C@H]1[C@@H](c2ccc(F)cc2)C[C@@H]2CC[C@H]1N2C [CFT] | 25 | – | Ki [5, 12]: 3.9 µM; Ki [6]: 357 nM
CN(C)CCC=C1c2ccccc2CCc2ccccc21 [Amitriptyline] | 0.097 | 30 ± 1 | Ki (hDAT [4]): 3250 ± 20 nM
CC(NC(C)(C)C)C(=O)c1cccc(Cl)c1 (stereo not drawn) [Bupropion] | 7.5 | 48000 ± 5000 | –
NCCc1ccc(O)c(O)c1 [Dopamine] | – | 2900 ± 500 | –
CN(C)CCC[C@@]1(c2ccc(F)cc2)OCc2cc(C#N)ccc21 [S-citalopram] | 24 | 8100 ± 2100 | Ki (hDAT [7]): 27.4 ± 3.11 µM; Ki (hNET [8]): 7.84 ± 0.998 µM
OC1(c2ccc(Cl)cc2)c2ccccc2C2=NCCN21 (stereo not drawn) [Mazindol] | 2.8 | 4.4 ± 2.2 | Ki ([1]; Ki, first (higher affinity) binding population of biphasic curve, [3H]nisoxetine displacement, T = 2 h at RT, two-site fit, representative dataset, estimated): 0.0002 µM; Ki ([1]; read-out: Ki, second (lower affinity) binding population of biphasic curve, [3H]nisoxetine displacement, T = 2 h at RT, two-site fit, representative dataset, estimated): 0.402 µM; IC50 [9]: 0.025 µM; Kd [9]: 13 µM; IC50 ([9]; read-out: IC50, second (lower affinity) binding population of biphasic curve, homologous [3H]mazindol competition, biphasic dataset T = 16 h, two-site fit, estimated): 79 µM; Ki (hNET [3]): 0.45 ± 0.03 nM
Fc1ccc([C@@H]2CCNC[C@H]2COc2ccc3c(c2)OCO3)cc1 [Paroxetine] | 0.322 | 22 ± 4 | –
CNCCC(Oc1ccccc1OC)c1ccccc1 (stereo not drawn) [Nisoxetine] | – | 5.6 ± 2.2 | Kd [10]: 31 nM; Kd [5]: 70 nM
CN(C)CCCN1c2ccccc2CCc2ccccc21 [Imipramine] | – | 30 ± 10 | –
NC(=O)C[S+]([O-])C(c1ccccc1)c1ccccc1 (stereo not drawn) [Modafinil] | 554 | – | –
C[C@H](N)Cc1ccccc1 [D-amphetamine] | 18 | 6600 ± 900 | –
CNCCC=C1c2ccccc2CCc2ccccc21 [Nortriptyline] | – | – | Ki (hDAT [4]): 1140 ± 30 nM
COC(=O)[C@H]1C(c2ccc(I)cc2)C[C@@H]2CC[C@H]1N2C (stereo partly drawn) [RTI-55] | 0.13 | 66 ± 10 | Ki [5, 12]: 0.299 µM; Ki [11]: 0.5 nM; Ki [6]: 4 nM
CC(O)CN1CCN(CC[S+]([O-])C(c2ccc(F)cc2)c2ccc(F)cc2)CC1 (stereo not drawn) [JJC8-091] | 199 | – | –
NC[C@H](O)c1ccc(O)c(O)c1 [Norepinephrine] | 184 | 49000 ± 9000 | Ki [5]: 68 µM
CN[C@@H](C)Cc1ccccc1 [Methamphetamine] | 13 | – | Ki (hNET [3]): 660 ± 20 nM; Ki (hDAT [4]): 2800 ± 100 nM
COC(=O)[C@H]1[C@@H](OC(=O)c2ccccc2)C[C@@H]2CC[C@H]1N2C [Cocaine] | 20 | 2660 ± 230 | Ki (hNET [3]): 1420 ± 50 nM
CCCCN1[C@@H]2CC[C@H]1CC(OC(c1ccc(F)cc1)c1ccc(F)cc1)C2 (stereo partly drawn) [JHW007] | 3.1 | – | Ki (NET): 1330 nM
